Assay results published in PMC9061822, “A novel SRSF3 inhibitor, SFI003, exerts anticancer activity against colorectal cancer by modulating the SRSF3/DHCR24/ROS axis” (Cell Death Discovery, 2022).
Entries after “also recorded” stand apart in the source; their conditions may differ. Read-outs that look alike come from different tables or passages of the source. Where a SMILES comes first, the peptide text is derived from it. The star is where a group is joined. Cbz = O=C(OCc1ccccc1)*

Tests used:
[1] = target: T1, SRSF3 (Homo sapiens, UniProt P84103); test: Western blot of SRSF3 protein in HCT-116 and SW480 cells; format: cell-based; design: endogenous in cells; host or cells: HCT-116 and SW480; details: for effect on SFI003-induced SRSF3 degradation: HCT-116 and SW480, 20 μM SFI003 plus 3 μM MLN4924, 50 μM CHQ or 10 μM MG132 for 12 h
T1 sequence (P84103 1-164): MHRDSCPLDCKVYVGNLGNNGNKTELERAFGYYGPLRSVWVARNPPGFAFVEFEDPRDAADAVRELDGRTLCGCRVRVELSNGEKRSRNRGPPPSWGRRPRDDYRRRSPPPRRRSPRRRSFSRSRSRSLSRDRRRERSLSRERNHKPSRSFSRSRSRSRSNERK
Description: (§1) After cell lysates were prepared, protein concentrations were determined by a BCA assay (TaKaRa, Kusatsu, Japan). Equal amounts of protein were separated by SDS–PAGE and transferred to polyvinylidene difluoride membranes. After normalization, the blots were probed with appropriate antibodies, as described previously.

[2] = test system: ROS; test: Detection of ROS (DCFH-DA) in HCT-116 and SW480 cells; format: cell-based, Human; details: 72 h
Description: Following treatment with SFI003 or siRNA, the cells were washed with PBS and incubated with DCFH-DA for 20 min at 37 °C. After washing three times, the cells were collected and measured at 488 nm excitation and 525 nm emission by a microplate reader (Tecan, Switzerland) according to the manufacturer’s instructions (Beyotime, Shanghai, China). The protein concentrations were determined by using a BCA assay (TaKaRa, Kusatsu, Japan).

[3] = test system: HCT-116 and SW480 cells; test: WB of EMT and apoptosis markers with ROS scavengers; format: cell-based, Human; details: 20 μM SFI003 with 5 mM NAC or 100 μM Trolox, 72 h
Description: as §1

[4] = test system: HCT-116 cells; test: MTT assay in HCT-116 cells; format: cell-based, Human
Description: (§2) Human CRC cell lines were purchased from the American Type Culture Collection (VA, USA). HCT-116 cells were cultured in DMEM (HyClone, Utah, USA) containing 10% fetal bovine serum (FBS; Gibco, NY, USA). SW480 cells were cultured in RPMI 1640 medium (HyClone, Utah, USA) containing 10% FBS. All cells were cultured in an incubator (Thermo, CA, USA) at a constant temperature of 37 °C and 5% CO2. N-Acetylcysteine (NAC), Trolox, MLN4924, 5-Fu, and capecitabine were purchased from MedChemExpress LLC (Shanghai, China). MG132 was purchased from Santa Cruz Biotech (CA, USA). Chloroquine (CHQ) was purchased from Sigma (CA, USA). Rapamycin was purchased from Beyotime (Shanghai, China). Primary antibodies against SRSF3 and E-Cadherin were purchased from Abcam (Cambridge, UK). Primary antibodies against N-Cadherin, Caspase 3, DHCR24, CAT, Akt and phospho-Akt (Ser473) were purchased from Cell Signaling Technology (MA, USA). Primary antibodies against β-actin, mTOR, and phospho-mTOR ([…]) were purchased from Beyotime (Shanghai, China). Primary antibody against Vimentin was purchased from Proteintech (Wuhan, China). Primary antibody against Bcl-2 was purchased from Santa Cruz Biotech (CA, USA). Primary antibody against Flag was purchased from MBL Beijing Biotech (Beijing, China). CRC cells were transfected with 100 nM siRNA or treated with various doses of SFI003 for 24 h, 48 h, or 72 h before being subjected to MTT assay as described previously.

[5] = test system: SW480 cells; test: MTT assay in SW480 cells; format: cell-based, Human
Description: as §2

[6] = test system: HCT-116 xenografts; test: HCT-116 xenografts in SCID mice; format: in vivo; details: two weeks; for number of tumors that disappeared: HCT-116 xenografts
Description: (§3) To explore the effect of SFI003 on the growth of CRC, approximately 3 × 10^6 HCT-116 cells or 8 × 10^6 SW480 cells were collected and mixed with Matrigel (Corning, NY, USA) at a 1:1 ratio by volume and then injected into the lower back region of mice. When tumors were palpable, mice were randomly divided into four groups. One group received vehicle as a control, while the other three groups were orally administered SFI003 at a dosage of 100 or 200 mg/kg or capecitabine at a dosage of 100 mg/kg for two continuous weeks. The tumor sizes and mouse body weights were monitored every other day. At the end of the experiment, tumors and blood samples were collected for further studies. The tumor size was evaluated according to Eq.: tumor size (mm^3) = (length × width^2) × 0.5.

[7] = test system: SW480 xenografts; test: SW480 xenografts in SCID mice; format: in vivo
Description: as §3

[8] = Pharmacokinetics in ICR mice; format: in vivo; details: mouse, plasma
Description: 29 the blood samples by centrifuging at 5,000 rpm under 4℃ for 5 min. […]
(§4) 33 or tissue sample was added into 100 µl acetonitrile containing internal standard
(§5) 34 Tolbutamide. The mixture was vortexed for 3 min and centrifuged at 13,000 rpm for 10
(§6) 35 min. An aliquot of 10 µl resulting supernatant was injected to LC -MS/MS system
(§7) 36 (API4000 QTrap; AB Sciex) for compound analysis. The analytes were separated in a
(§8) 37 Venusil XBP-C18 column (2.1×50 mm, 5 μm; Agela, China) using the mixture of 5mM
(§9) 38 NH4OAc-0.1% formic acid (A) and methanol (B) as mobile phase. The gradient
(§10) 39 condition was: 1.3 min, 2%B; 2.0 min, 90%B; 3.5 min, 90%B; 3.8 min, 2%B. The elutes
(§11) 40 were detected by MS/MS spectrometry using ESI positive mode with m/z 271.1>172.2,
(§12) 42 SFI003. […]
52 Druggability evaluation of SFI003
53 Next, we evaluated the druggability of SFI003. We first examined the
54 pharmacokinetic properties of SFI003 in mice. We measured the plasma concentration
55 of SFI003 in mice after oral administration of 100 mg/kg SFI003.

[9] = Tissue distribution in ICR mice; format: in vivo; details: oral 100 mg/kg
Description: 29 the blood samples by centrifuging at 5,000 rpm under 4℃ for 5 min. For
30 determination of SFI003 concentration in mice tissues, the male ICR mice (n=3) were
31 orally administrated with 100mg/kg SFI003, and the liver and kidney of the mice were
32 collected at 0.25, 0.5, 1, 2, 4, 8, and 12 h after administration. An aliquot of 25 µl plasma
as §4, §5, §6, §7, §8, §9, §10, §11, §12

[10] = Metabolic stability in human liver microsomes; format: in vitro ADME
[11] = Metabolic stability in rat liver microsomes; format: in vitro ADME
[12] = Plasma protein binding; format: in vitro ADME; details: read-out: plasma protein binding rate (converted)
[13] = test system: CCDC50S, p53α and p53β mRNA; test: RT-PCR of SRSF3 target gene mRNA in HCT-116 and SW480 cells; format: cell-based, Human; details: 20 μM, 72 h
Description: (§13) HCT-116 and SW480 cells were transfected with 100 nM siRNA for 48 h or treated with SFI003 for 72 h. Total RNA was isolated by using TRIzol (Invitrogen, CA, USA) according to the manufacturer’s instructions and then was reversely transcribed into cDNA with random primers (TaKaRa, Kusatsu, Japan) and RT-Kit (Thermo, CA, USA). The cDNA was amplified by PCR using the primers listed in Supplementary Table 1.

[14] = Serum biochemical analysis / tolerability in treated mice; format: in vivo
Description: as §3

[15] = test system: HCT-116 and SW480 cells; test: Wound-healing and Transwell migration assays; format: cell-based, Human; details: HCT-116 and SW480, 10 μM, 24 h
Description: HCT-116 and SW480 cells were seeded into six-well plates in confluent monolayers. Then, the cells were transfected with 100 nM siRNA or treated with 10 μM SFI003. Scratch wounds were created using a sterilized tip in 0.5% serum medium. Images were captured at 0 h, 24 h, and 72 h after wounding. Three independent measurements of wound width were conducted.
HCT-116 and SW480 cells (1 × 10^5) were resuspended in 200 µl medium containing 0.1% serum and then added to the upper compartment of migration chambers (Costar, Corning, NY, USA). The bottom chamber was filled with 600 µl cell culture medium with 20% FBS as an attractant. After coculture for 24 h or 48 h, the cells were fixed in 4% paraformaldehyde and stained with 0.1% crystal violet. The stained cells in 8 random fields were counted at ×100 magnification. Three independent measurements were conducted.

[16] = test system: DHCR24; test: RT-PCR and WB of DHCR24 in HCT-116 and SW480 cells; format: cell-based, Human; details: HCT-116 and SW480, 20 μM, 72 h
Description: as §13, §1

[17] = test system: Akt-mTOR pathway; test: WB of p-Akt and p-mTOR in HCT-116 and SW480 cells; format: cell-based, Human; details: HCT-116 and SW480, 20 μM, 72 h
Description: as §1

[18] = Pharmacokinetics in ICR mice; format: in vivo; details: mouse, plasma, iv, 10 mg/kg
[19] = read-out: intrinsic clearance (converted)
[20] = SFI003-treated tumor-bearing mice

With CC(C)C[C@@H](C=O)NC(=O)[C@H](CC(C)C)NC(=O)[C@H](CC(C)C)NC(=O)OCc1ccccc1 [MG132] (Cbz-Leu-Leu-Leu-aldehyde) the “effect on SFI003-induced SRSF3 degradation” value [1] was “rescued”.
With NS(=O)(=O)OC[C@@H]1C[C@@H](n2ccc3c(N[C@H]4CCc5ccccc54)ncnc32)C[C@@H]1O [MLN4924] the “effect on SFI003-induced SRSF3 degradation” value [1] was “rescued”.
In the case of CC(=O)N[C@@H](CS)C(=O)O [NAC, N-Acetylcysteine], the “effect on SFI003-induced ROS” value ([2]; 20 μM SFI003 with 5 mM NAC or 100 μM Trolox) is reported as “significantly reversed” and the “effect on SFI003-induced apoptosis and migration disability” value [3] is reported as “reversed”.
In the case of COc1ccc(-c2csc(N/N=C(\C)c3nc4ccccc4[nH]3)n2)cc1 [SFI003], the “cytotoxicity after SRSF3 silencing” value ([4]; HCT-116, SRSF3 siRNA 24 h, then 10 μM for 72 h) is reported as “eliminated”, the inhibition of proliferation ([4]; HCT-116, various doses, 24, 48 and 72 h) is reported as “dose- and time-dependent” and the “IC50 compared with the other synthesized compounds” value ([4]; HCT-116 cells, 72 h) is reported as “the most potent compound with the lowest IC50 value”. The IC50 ([4]; Homo sapiens, HCT-116 cells, 72 h) was 8.78 µM, the IC50 ([5]; Homo sapiens, SW480 cells, 72 h) was 48.7 µM and the “cytotoxicity after SRSF3 silencing” value ([5]; SW480, SRSF3 siRNA 24 h, then 50 μM for 72 h) was “eliminated”. For the same compound, the inhibition of proliferation ([5]; SW480, various doses, 24, 48 and 72 h) was “dose- and time-dependent”, the “growth of HCT-116 xenografts” value ([6]; 100 or 200 mg/kg orally, dose-dependent) was “efficiently suppressed” and the “number of tumors that disappeared” value ([6]; 100 mg/kg orally, 100 mg/kg) was “two and two of six”. The “number of tumors that disappeared” value ([6]; 200 mg/kg orally) was “three”, the “growth of SW480 xenografts” value ([7]; 100 or 200 mg/kg orally, two weeks, dose-dependent) was “efficiently suppressed” and the body weight ([7]; SW480 tumor-bearing mice, oral, two weeks) was “slight reduction”. The “antitumor activity compared with capecitabine” value ([7]; SW480 xenografts, oral, two weeks, capecitabine 100 mg/kg) was “stronger inhibitory activity than capecitabine; also recorded: more potent antitumor efficacy than capecitabine”, the “concentration of SFI003 in tumors versus plasma” value ([7]; mice grafted with SW480 cells, 100 mg/kg, 2 h) was “close to the plasma” and the bioavailability ([8]; oral, p.o. 100 mg/kg vs i.v. 10 mg/kg, read-out: F (bioavailability)) was 52.5%. For the same compound, the AUC(0-inf) ([8]; po, 100 mg/kg) was 30900 ng·h/mL, the AUC(0-t) ([8]; po, 100 mg/kg) was 30900 ng·h/mL and the Tmax ([8]; po, 100 mg/kg) was 2 h. For the same compound, the half-life ([8]; po, 100 mg/kg) was 1.86 h, the MRT inf ([8]; po, 100 mg/kg, read-out: MRTINF_obs) was 4.66 h and the Cmax ([8]; po, 100 mg/kg) was 4440 ng/mL. The “distribution to liver and kidney” value [9] was “highly accumulated”, the half time [10] was 31.50 min and the CLint scaled [10, 19] was 55.2 mL/min/kg. The half time [11] was 53.31 min, the CLint scaled [11, 19] was 46.7 mL/min/kg and the fraction unbound [12] was 0.586. For the same compound, the “mRNA level of CCDC50S” value [13] was “markedly reduced”, the “mRNA level of p53α” value [13] was “markedly reduced” and the “mRNA level of p53β” value [13] was “elevated”. The ROS level ([2]; HCT-116 and SW480, 10, 20 and 50 μM, dose-dependent) was “significantly enhanced”, the “serum ALP, ALT, AST, GGT” value [14, 20] was “no alteration” and the “serum CRE and URE” value [14, 20] was “moderate”. The tolerability in vivo ([14]; mice) was “well tolerated”, the “migration of CRC cells” value [15] was “repressed” and the “DHCR24 mRNA and protein” value [16] was “inhibited”. The “activities of Akt (p-Akt) and mTOR (p-mTOR)” value [17] was “inhibited”, the AUC(0-inf) [18] was 5890 ng·h/mL and the AUC(0-t) [18] was 5890 ng·h/mL. For the same compound, the half-life [18] was 0.4 h, the MRT inf ([18]; read-out: MRTINF_obs) was 0.44 h and the Vd ([18]; read-out: Vss) was 0.75 L/kg. The “level of SRSF3 protein” value ([1]; HCT-116 and SW480 cells, various doses, 72 h) was “apparently reduced”.
